Results on 25 molecules are retold here after BindingDB's records for PubMed 20126400 (University of Oklahoma, 2010).

What all share (experiment): Ray2010 Assay 74
In assay [1] the target is T1, Gamma-aminobutyric acid receptor subunit alpha-1/Adenosine receptor A1 (Homo sapiens, UniProt P14867+P30542).
T1 sequence (P30542 whole entry): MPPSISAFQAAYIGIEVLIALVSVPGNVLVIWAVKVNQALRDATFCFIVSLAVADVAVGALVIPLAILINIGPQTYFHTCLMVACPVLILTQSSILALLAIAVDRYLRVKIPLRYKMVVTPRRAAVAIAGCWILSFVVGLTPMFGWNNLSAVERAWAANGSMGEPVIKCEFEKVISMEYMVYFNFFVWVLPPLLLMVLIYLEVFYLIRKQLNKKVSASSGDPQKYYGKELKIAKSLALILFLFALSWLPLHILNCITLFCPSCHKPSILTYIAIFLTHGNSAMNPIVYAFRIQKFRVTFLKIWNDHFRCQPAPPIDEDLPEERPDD
T1 sequence (P14867 whole entry): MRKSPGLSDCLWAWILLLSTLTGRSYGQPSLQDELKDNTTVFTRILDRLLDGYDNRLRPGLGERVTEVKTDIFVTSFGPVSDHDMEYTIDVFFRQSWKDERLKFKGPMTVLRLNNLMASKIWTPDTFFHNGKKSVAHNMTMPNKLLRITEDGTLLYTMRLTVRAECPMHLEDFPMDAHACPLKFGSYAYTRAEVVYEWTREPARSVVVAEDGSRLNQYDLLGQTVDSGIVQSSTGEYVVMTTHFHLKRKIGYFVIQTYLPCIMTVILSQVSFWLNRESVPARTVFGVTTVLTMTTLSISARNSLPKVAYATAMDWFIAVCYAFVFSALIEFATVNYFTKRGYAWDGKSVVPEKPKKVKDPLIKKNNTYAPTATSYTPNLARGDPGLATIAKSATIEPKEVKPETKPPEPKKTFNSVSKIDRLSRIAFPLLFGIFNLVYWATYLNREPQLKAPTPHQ
The source says:
(§1) Table S2 shows raw Ki data for the current study combined with data collected from the literature for the ten additional compounds.

The target in assay [2] is T2, Muscarinic acetylcholine receptor M4 (Homo sapiens, UniProt P08173).
T2 sequence (P08173 whole entry): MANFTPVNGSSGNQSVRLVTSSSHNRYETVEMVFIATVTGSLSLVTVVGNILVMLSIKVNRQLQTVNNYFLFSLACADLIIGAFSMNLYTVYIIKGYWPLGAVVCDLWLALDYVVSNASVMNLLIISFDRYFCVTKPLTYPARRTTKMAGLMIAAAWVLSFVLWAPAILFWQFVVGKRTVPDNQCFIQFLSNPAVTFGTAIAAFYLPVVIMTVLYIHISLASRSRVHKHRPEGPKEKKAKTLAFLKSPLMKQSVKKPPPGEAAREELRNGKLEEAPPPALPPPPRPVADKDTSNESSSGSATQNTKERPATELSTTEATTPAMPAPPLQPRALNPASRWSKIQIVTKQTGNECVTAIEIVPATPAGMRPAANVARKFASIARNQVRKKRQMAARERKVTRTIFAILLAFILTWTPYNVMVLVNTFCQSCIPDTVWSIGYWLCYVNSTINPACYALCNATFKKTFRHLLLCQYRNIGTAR
Description: as §1

Assay [3] concerns the target Neuronal acetylcholine receptor subunit alpha-2/beta-4 (Homo sapiens, UniProt P30926+Q15822).
Description: as §1

Assay [4] has as its target Neuronal acetylcholine receptor subunit alpha-4/beta-4 (Homo sapiens, UniProt P30926+P43681).
Description: as §1

The target in assay [5] is Neuronal acetylcholine receptor subunit alpha-2/beta-2 (Homo sapiens, UniProt P17787+Q15822).
Description: as §1

The target in assay [6] is Metabotropic glutamate receptor 6 (Homo sapiens, UniProt O15303).
Description: as §1

In assay [7] the target is Neuronal acetylcholine receptor subunit alpha-3/beta-2 (Homo sapiens, UniProt P17787+P32297).
Description: as §1

In assay [8] the target is Metabotropic glutamate receptor 8 (Homo sapiens, UniProt O00222).
Description: as §1

In assay [9] the target is Metabotropic glutamate receptor 2 (Homo sapiens, UniProt Q14416).
Chain of Metabotropic glutamate receptor 2 (Q14416 whole entry): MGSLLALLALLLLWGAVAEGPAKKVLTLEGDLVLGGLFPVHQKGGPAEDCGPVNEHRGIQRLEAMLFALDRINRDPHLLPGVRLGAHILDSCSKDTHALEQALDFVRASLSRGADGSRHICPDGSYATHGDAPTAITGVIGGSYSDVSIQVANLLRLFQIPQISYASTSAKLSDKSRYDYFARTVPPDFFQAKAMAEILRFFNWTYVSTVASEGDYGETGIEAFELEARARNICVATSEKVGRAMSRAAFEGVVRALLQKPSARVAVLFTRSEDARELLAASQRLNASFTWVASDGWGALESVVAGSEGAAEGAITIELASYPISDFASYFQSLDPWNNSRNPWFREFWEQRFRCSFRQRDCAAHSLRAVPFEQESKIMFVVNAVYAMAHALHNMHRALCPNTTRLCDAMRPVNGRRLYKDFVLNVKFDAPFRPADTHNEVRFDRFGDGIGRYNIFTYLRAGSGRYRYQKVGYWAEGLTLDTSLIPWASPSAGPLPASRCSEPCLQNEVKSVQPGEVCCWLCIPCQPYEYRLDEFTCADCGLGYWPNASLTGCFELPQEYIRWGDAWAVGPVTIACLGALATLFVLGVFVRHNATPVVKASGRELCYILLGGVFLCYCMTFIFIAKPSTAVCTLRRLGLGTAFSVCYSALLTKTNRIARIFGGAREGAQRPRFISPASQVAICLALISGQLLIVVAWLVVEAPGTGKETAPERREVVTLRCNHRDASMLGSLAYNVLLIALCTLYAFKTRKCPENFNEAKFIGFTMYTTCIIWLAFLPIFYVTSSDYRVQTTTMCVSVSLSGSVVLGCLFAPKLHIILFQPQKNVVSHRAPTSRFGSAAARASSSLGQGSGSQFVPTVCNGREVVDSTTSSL
Description: as §1

Assay [10] has as its target Metabotropic glutamate receptor 4 (Homo sapiens, UniProt Q14833).
Description: as §1

In assay [11] the target is Neuronal acetylcholine receptor subunit alpha-4/beta-2 (Mus musculus, UniProt O70174+Q9ERK7).
Description: as §1

In assay [12] the target is Metabotropic glutamate receptor 5 (Homo sapiens, UniProt P41594).
Chain of Metabotropic glutamate receptor 5 (P41594 whole entry): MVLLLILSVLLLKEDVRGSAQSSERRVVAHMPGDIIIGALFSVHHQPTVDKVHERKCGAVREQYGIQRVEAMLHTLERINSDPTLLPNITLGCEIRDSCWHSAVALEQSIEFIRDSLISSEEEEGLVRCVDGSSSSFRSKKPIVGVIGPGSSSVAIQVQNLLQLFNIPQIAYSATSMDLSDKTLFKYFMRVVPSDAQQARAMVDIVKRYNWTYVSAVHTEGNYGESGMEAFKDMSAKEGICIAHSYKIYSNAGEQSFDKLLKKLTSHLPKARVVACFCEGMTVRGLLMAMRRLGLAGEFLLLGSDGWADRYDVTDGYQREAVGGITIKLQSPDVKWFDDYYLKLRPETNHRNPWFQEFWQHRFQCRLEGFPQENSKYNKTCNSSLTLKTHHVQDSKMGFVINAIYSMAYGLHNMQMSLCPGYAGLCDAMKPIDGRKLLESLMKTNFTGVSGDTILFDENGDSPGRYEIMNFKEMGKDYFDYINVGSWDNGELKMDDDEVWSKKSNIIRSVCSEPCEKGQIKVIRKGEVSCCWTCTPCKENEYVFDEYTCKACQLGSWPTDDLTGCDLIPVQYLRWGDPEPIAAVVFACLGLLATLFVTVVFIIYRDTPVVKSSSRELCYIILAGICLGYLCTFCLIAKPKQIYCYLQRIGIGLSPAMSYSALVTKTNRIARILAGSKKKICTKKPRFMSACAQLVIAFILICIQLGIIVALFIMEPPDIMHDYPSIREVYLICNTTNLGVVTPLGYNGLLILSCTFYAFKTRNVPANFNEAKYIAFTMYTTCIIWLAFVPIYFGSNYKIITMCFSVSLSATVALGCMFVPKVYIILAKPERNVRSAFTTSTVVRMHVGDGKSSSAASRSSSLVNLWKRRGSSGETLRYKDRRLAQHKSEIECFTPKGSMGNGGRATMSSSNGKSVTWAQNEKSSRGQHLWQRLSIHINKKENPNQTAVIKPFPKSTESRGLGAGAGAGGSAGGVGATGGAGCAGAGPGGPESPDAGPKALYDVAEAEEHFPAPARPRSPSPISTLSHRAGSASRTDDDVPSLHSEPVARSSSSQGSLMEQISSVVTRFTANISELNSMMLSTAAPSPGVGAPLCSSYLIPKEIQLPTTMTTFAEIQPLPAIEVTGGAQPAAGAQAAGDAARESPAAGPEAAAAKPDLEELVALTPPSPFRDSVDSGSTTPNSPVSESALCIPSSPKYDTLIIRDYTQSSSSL
Description: as §1

Assay [13] concerns the target Metabotropic glutamate receptor 1 (Homo sapiens, UniProt Q13255).
Description: as §1

Assay [14] concerns the target Neuronal acetylcholine receptor subunit alpha-4/beta-2 (Homo sapiens, UniProt P17787+P43681).
Description: as §1

Assay [15] addresses T3, 5-hydroxytryptamine receptor 2C (Homo sapiens, UniProt P28335).
T3 sequence (P28335 whole entry): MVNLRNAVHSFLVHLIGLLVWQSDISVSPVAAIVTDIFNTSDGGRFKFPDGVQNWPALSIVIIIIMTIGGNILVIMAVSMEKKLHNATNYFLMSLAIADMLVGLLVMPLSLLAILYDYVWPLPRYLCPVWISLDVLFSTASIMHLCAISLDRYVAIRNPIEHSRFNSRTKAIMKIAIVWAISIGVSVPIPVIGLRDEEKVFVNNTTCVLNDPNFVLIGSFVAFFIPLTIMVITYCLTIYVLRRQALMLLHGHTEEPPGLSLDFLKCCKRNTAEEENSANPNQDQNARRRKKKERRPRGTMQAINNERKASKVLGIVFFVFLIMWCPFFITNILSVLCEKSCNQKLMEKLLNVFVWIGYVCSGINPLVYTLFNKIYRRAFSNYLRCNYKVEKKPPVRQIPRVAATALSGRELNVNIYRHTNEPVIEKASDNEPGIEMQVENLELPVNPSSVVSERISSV
Description: as §1

The target of a further assay is Glutamate receptor 4 (Homo sapiens, UniProt P48058).
Description: as §1

Chain of Neuronal acetylcholine receptor subunit alpha-4/beta-2 (Homo sapiens, UniProt P17787+P43681) (P43681 whole entry): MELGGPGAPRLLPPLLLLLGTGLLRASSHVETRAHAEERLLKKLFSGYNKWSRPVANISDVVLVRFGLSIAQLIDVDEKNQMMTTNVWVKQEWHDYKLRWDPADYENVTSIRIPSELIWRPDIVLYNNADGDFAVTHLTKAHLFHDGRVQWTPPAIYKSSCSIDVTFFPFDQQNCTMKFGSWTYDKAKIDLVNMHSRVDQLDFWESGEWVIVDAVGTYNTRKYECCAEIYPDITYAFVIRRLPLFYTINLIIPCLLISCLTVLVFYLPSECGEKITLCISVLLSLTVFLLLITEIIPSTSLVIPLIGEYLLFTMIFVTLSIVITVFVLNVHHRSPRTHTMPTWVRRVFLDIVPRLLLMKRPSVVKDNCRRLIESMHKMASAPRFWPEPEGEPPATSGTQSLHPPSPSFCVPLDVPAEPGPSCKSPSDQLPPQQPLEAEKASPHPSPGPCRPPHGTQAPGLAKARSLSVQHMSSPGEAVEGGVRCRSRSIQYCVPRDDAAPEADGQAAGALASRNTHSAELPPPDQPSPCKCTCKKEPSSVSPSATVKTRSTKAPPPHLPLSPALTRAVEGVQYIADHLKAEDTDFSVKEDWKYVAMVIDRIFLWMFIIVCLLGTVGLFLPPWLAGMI
Chain of Neuronal acetylcholine receptor subunit alpha-4/beta-2 (Homo sapiens, UniProt P17787+P43681) (P17787 whole entry): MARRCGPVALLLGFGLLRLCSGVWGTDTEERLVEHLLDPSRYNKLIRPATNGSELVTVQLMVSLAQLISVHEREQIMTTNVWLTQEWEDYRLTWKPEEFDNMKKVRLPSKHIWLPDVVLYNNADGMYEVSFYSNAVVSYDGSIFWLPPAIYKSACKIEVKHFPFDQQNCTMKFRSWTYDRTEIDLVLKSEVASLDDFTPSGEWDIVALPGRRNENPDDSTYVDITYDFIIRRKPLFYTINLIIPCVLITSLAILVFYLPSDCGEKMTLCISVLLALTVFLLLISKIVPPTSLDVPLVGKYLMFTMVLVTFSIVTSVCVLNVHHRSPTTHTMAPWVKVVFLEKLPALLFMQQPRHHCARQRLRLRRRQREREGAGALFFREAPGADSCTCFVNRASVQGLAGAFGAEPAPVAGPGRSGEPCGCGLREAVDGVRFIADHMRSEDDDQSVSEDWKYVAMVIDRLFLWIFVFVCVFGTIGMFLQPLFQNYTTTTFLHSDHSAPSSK
Chain of Neuronal acetylcholine receptor subunit alpha-4/beta-4 (P43681 whole entry): as the sequence (P43681 whole entry) above
Chain of Neuronal acetylcholine receptor subunit alpha-4/beta-4 (P30926 whole entry): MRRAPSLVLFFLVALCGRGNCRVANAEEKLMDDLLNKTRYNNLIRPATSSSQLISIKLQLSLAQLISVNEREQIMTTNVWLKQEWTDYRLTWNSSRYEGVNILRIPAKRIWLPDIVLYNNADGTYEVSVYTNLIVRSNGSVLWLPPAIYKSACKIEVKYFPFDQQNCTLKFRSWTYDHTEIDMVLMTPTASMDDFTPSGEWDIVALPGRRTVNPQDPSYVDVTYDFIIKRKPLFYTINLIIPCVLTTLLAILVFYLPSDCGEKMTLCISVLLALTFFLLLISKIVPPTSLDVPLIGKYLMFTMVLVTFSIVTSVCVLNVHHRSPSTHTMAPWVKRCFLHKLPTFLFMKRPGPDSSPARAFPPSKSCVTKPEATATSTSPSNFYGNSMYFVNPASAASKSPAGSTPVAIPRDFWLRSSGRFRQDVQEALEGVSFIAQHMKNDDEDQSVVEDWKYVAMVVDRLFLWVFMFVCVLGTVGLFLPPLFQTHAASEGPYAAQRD
Chain of Metabotropic glutamate receptor 4 (Q14833 whole entry): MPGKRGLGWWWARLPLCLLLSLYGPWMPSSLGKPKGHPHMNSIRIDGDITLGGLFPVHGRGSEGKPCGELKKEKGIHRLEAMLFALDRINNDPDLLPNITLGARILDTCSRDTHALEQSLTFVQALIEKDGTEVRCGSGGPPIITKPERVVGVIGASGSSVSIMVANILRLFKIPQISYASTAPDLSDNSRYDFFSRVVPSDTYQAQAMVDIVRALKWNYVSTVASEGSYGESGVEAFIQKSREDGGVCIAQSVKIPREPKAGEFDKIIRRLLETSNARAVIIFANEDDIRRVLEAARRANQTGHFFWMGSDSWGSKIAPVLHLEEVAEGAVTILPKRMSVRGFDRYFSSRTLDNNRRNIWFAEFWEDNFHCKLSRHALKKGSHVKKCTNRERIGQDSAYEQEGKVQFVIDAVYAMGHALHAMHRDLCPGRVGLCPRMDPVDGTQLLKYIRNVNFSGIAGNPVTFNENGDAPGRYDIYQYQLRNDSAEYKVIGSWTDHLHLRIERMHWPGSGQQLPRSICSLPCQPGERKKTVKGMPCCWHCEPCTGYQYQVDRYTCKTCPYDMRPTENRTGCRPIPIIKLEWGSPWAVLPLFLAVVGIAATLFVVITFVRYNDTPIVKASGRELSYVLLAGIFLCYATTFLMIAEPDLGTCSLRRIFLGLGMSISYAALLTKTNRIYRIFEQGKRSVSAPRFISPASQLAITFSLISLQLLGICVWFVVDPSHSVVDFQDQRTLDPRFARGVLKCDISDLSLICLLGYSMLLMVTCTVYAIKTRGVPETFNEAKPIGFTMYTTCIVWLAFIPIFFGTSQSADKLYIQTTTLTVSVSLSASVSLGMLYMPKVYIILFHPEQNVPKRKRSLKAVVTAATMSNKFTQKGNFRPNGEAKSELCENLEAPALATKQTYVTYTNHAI

`CCSc1cc(OC)c(CC(C)N)cc1OC` (configuration not stated) [2-(4-Ethylsulfanyl-2,5-dimethoxy-phenyl)-1-methyl-ethylamine]: the inhibitory constant (Ki) in assay [1] and in assay [2] was more than 10 µM throughout.
In the case of `CC(N)Cc1ccc2c(c1)OCO2` (configuration not stated), the Ki (commonly the equilibrium dissociation constant of an inhibitor or competing ligand from its target) in assay [1] is more than 10 µM.
For `C[C@@H]1C[C@H](C)N1C(=O)C1C=C2c3cccc4[nH]cc(c34)C[C@H]2N(C)C1` (stereo partly drawn) [cis-2a], the Ki in [3], in assay [4], in assay [5], in [6], in assay [7] and in assay [8] was more than 10 µM throughout. For the same molecule, the Ki in assay [9], in assay [10], in assay [11], in [12], in assay [13] and in assay [14] was more than 10 µM throughout.
As for `COc1cc(CCN)cc(OC)c1OC` [3,4,5-trimethoxyphenylethylamine], the Ki in [1], in assay [15] and in assay [2] was more than 10 µM in each case.
As to `COc1cc(CC(C)N)c(OC)cc1C` (stereo not drawn) [(+/-)2-(2,5-Dimethoxy-4-methyl-phenyl)-1-methyl-ethylamine], the Ki in [3], in assay [4], in [5], in assay [7], in assay [11] and in assay [14] was more than 10 µM each time.
Take `CN(C)CCc1c[nH]c2ccccc12` [2-(1H-indol-3-yl)-N,N-dimethylethanamine]: the Ki in assay [1] and in assay [2] was more than 10 µM each time.
Consider `NCCc1c2c(c(Br)c3c1OCC3)OCC2` [2-(8-Bromo-2,3,6,7-tetrahydro-benzo[1,2-b;4,5-b']difuran-4-yl)-ethylamine], for which the Ki in assay [3] was more than 10 µM; in assay [4], more than 10 µM; in [5] it was more than 10 µM; in [7], more than 10 µM; in [15] it was 0.0106 µM; in [11] it was more than 10 µM. For the same molecule, the Ki was 0.52 µM in [2] and more than 10 µM in assay [14].
Regarding `CCc1cc(OC)c(CCN)cc1OC` [2-(2,5-dimethoxy-4-ethylphenyl)ethylamine], the Ki in assay [1] and in assay [2] was more than 10 µM throughout.
Regarding `CC(C)N(CCc1c[nH]c2ccccc12)C(C)C` [dipt], the Ki in assay [1], in assay [15] and in assay [2] was more than 10 µM each time.
In the case of `COc1cc(CCN)c(OC)cc1Br`, the inhibition constant (Ki) in assay [1] and in assay [2] was more than 10 µM in each case.
For `COC(=O)[C@@H]1C[C@H](OC(C)=O)C(=O)[C@H]2[C@@]1(C)CC[C@H]1C(=O)O[C@H](c3ccoc3)C[C@]21C` [2S,4aR,6a(R,7R,9S,10aS,10bR)-9-(acetyloxy)-2-(furan-3-yl)dodecahydro-6a,10b-dimethyl-4,10-dioxo-2H-naphtho[2,1-c]pyran-7-carboxylic acid methyl ester], the inhibition constant (Ki) in [15] and in assay [2] was more than 10 µM in each case.
For the molecule `C[C@@H]1C[C@@H](C)N1C(=O)C1C=C2c3cccc4[nH]cc(c34)C[C@H]2N(C)C1` (some centres not stated) [rr-2b], the Ki in assay [3], in [4], in assay [5], in assay [6], in assay [7] and in [8] was more than 10 µM throughout. Besides, the inhibition constant (Ki) in assay [9], in [10], in assay [11], in assay [12], in [13] and in [14] was more than 10 µM throughout.
`COc1ccc2[nH]cc(CCN(C)C(C)C)c2c1` [5-meo-mipt]: the inhibition constant Ki in assay [1] and in assay [2] was more than 10 µM throughout.
Regarding “CAS_82830-44-2::(2R)-1-(4-iodo-2,5-dimethoxyphenyl)propan-2-amine::DOI,(-)::US20250270173, Compound DOI”, the Ki in assay [5] is more than 10 µM; in [7], more than 10 µM; in assay [15] it was 0.0458 µM; in assay [11] it was more than 10 µM; in assay [2], 0.578 µM.
For the molecule `CN(C)CCc1c[nH]c2cc(F)ccc12` [6-f-dmt], the Ki in assay [1] and in assay [2] was more than 10 µM in each case.
As for `CCN(CC)C(=O)[C@@H]1C=C2c3cccc4[nH]cc(c34)C[C@H]2N(C)C1` [[N-methyl-3H]LSD], the inhibition constant Ki in assay [3], in assay [4], in [5], in assay [6], in assay [7] and in assay [8] was more than 10 µM in each case. The Ki in assay [9], in assay [10], in assay [11], in [12], in assay [13] and in [14] was more than 10 µM in each case.
For `CCc1[nH]c2ccc(OC)cc2c1CCN(C)C` [2-ethyl-5-methoxy-N,N-dimethyltryptamine], the Ki (in assay [3]; in [4]; in assay [5]; at Glutamate receptor 4; in assay [7]; in assay [11]) was more than 10 µM each time. The Ki in [2] and in assay [14] was more than 10 µM in each case.
With `CCCN(CCC)CCc1c[nH]c2ccccc12` [dpt], the Ki in [1] and in assay [2] was more than 10 µM throughout.
On to `CCSc1cc(OC)c(CCN)cc1OC` [2C-T-2], for which the Ki in assay [1] and in assay [2] was more than 10 µM in each case.
On to `CCOc1cc(OC)c(CC(C)N)cc1OC` (configuration not stated), for which the Ki in assay [1], in assay [15] and in [2] was more than 10 µM in each case.
With `COc1ccc2[nH]cc(CCN(C)C)c2c1` [3-(2-DIMETHYLAMINOETHYL)-5-METHOXYINDOLE], the Ki in assay [1] and in assay [2] was more than 10 µM each time.
Regarding `CN(C)CCc1c[nH]c2cccc(O)c12` [4-hydroxy-N,N-dimethyltryptamine], the Ki in assay [1] and in assay [2] was more than 10 µM in each case.
Turning to `CCSc1cc(OC)c(CC(N)CC)cc1OC` (configuration not stated) [1-(4-Ethylsulfanyl-2,5-dimethoxy-benzyl)-propylamine], the Ki in [1] and in [2] was more than 10 µM throughout.
Consider `COc1ccc2[nH]cc(CCN(C(C)C)C(C)C)c2c1` [5-meo-dipt], for which the Ki in assay [1], in [15] and in assay [2] was more than 10 µM in each case.
For the molecule `COc1cc(CC(C)N)c(OC)cc1Br` (stereo not drawn) [2-(4-Bromo-2,5-dimethoxy-phenyl)-1-methyl-ethylamine((-)-DOB)], the Ki in assay [1] and in assay [2] was more than 10 µM in each case.
